The record followed here is patent publication US20180289780A1, “OSTEOPONTIN AND THROMBIN-CLEAVED FRAGMENT THEREOF AND THEIR USE IN ATHEROSCLEROSIS PREVENTION, INFLAMMATION REDUCTION AND IMPROVING PLAQUE STABILITY” (CardioVax, LLC, priority 2017, published 2018).

Assay [1] deals with ApoE-/- mice. Kind of assay: Plasma cytokine levels (Bioplex multiplex) in immunized ApoE-/- mice on HFD. The settings on record: mean ± SD. It counts as in vivo. The text has this: (§1) Female C57BL/6 Apoe^-/- mice (Jaxmice, USA) were immunized with tcOPN-PADRE or equal amounts of PADRE peptide using Alum (Pierce) as adjuvant, followed by two booster injections after two and five weeks (FIG. 1B). During the advanced study all mice received a final booster one weak prior to termination in order to analyze the effect on immune cells (FIG. 1B). Mice were fed a high-fat diet (HFD), 21% cocoa fat, 0.15% cholesterol, starting one week after the last booster injection. For early assessment of atherosclerosis mice were kept on HFD during 8 weeks before sacrifice. Mice that were allowed to develop a more advanced stage of atherosclerosis were kept on HFD during 15 weeks (FIG. 1B). For early atherosclerosis assessment two different lengths of immunized tcOPN-PADRE peptides (SEQ ID Nos: 6 and 7) were evaluated, while for advanced atherosclerosis assessment mice were immunized with shorter tcOPN-PADRE (SEQ ID No: 6) which was based on a tcOPN of 11 amino acids (SEQ ID NO: 4). Tissue was preserved as described previously. All animal experiments were approved by the Animal Care and Use Committee. Cytokine levels for IL-1β, IL-2, IL-4, IL-5, IL-6, IL-10, IL-13, IL-17, IL-12(p70), IFNγ, TNFα and MCP-1 were analyzed in plasma using Bioplex multiplex technology (Bio-Rad) according to manufacturer's protocol. Plasma levels for OPN and tcOPN were analyzed by ELISA according to manufacturer's protocol (IBL International). Plasma cholesterol was quantified colorimetrically using Infinity Cholesterol (ThermoTrace).

Assay [2] has as its system tcOPN-PADRE peptide, PADRE peptide, tcOPN protein or OPN protein. Nature of the assay: Antibody ELISA on plasma of immunized mice. It counts as in vivo. The settings on record: plasma of immunized ApoE-/- mice. As for the experimental part:
tcOPN-PADRE peptide, PADRE peptide, tcOPN protein or OPN protein was used for coating (20 μg/mL of each in PBS) microtiter plates (Nunc MaxiSorp, Nunc) over night at 4° C. Coated plates were washed with PBS with 0.05% Tween-20 and thereafter blocked with SuperBlock in Tris-buffered saline (TBS, Pierce) during 30 minutes at room temperature (RT) followed by an incubation of mouse plasma diluted 1:100 or 1:1000 in PBS-0.05% Tween-20 for 2 hours at RT. After rinsing, bound antibodies were detected using biotinylated goat anti-mouse IgGla or IgG2 antibodies (Jackson ImmunoResearch) that were incubated for 2 hours at RT. After washing, alkaline phosphatase-conjugated streptavidin (Sigma) was added and color reaction was developed using phosphatase substrate kit (Pierce). The absorbance (405 nm) was measured after 1 hour of incubation at room temperature. Mean values were calculated after subtraction of background absorbance.
A general note: In an ELISA, binding on a coated surface is turned into a signal by an enzyme label.

The test system of assay [3] is ApoE-/- mice. Kind of assay: Atherosclerotic plaque area: en face descending aorta, aortic arch, subvalvular lesions. Format: in vivo. The settings on record: additional early study, short peptide, HFD 8 weeks.
Excerpt: as §1, with “All animal experiments were approved by the Animal Care and Use Committee.” left out, “Plasma cholesterol was quantified colorimetrically using Infinity Cholesterol (ThermoTrace).” left out

Assay [4] concerns human monocyte THP-1 cells. Nature of the assay: Transwell migration assay, THP-1. It counts as cell-based. The settings on record: 10 ng/ml in lower chamber, 2 hours, vs buffer alone or full-length OPN. As for the experimental part: (§2) Monocyte cell migration was quantified in 24-well transwell inserts with polycarbonate filters (8-μm pore size) (Corning Costar). THP-1 monocytes (0.5×10^4 in 100 μl of RPMI 1640 medium) or murine blood cells from ApoE^-/- mice (25 μl in 75 μl of RPMI 1640 medium) were added to the upper chamber of the insert. The lower chamber contained 600 μl of RPMI 1640 with or without 10ng/ml tcOPN or OPN protein. The plates were incubated at 37° C. in 5% CO2 during 2 hours and migrated cells in the lower chamber were counted using flow cytometry. Blood monocytes were characterized with the monocyte FACS panel described above. In blocking experiment, tcOPN protein were pre-incubated with plasma (dilution 1:100) pooled from PADRE ctrl mice or tcOPN-PADRE mice over night at 4° C. prior to the migration experiment.

In assay [5] the test system is Blood monocytes from ApoE-/- mice (CD11b+). Kind of assay: Transwell migration assay, blood monocytes. The settings on record: 10 ng/ml in lower chamber, 2 hours, vs buffer alone. Format: cell-based. As for the experimental part: as §2

AKFVAAWTLKAAA (PADRE): in assay [1] (8 week HFD), the “Plasma IFNγ” value was found to be 312 ± 225 pg/mL, the “Plasma IL-2” value came to 45 ± 15 pg/mL, the “Plasma IL-5” value worked out at 111 ± 56 pg/mL and the “Plasma IL-6” value came to 33 ± 35 pg/mL. In assay [1] (8 week HFD), the “Plasma IL-10” value was found to be 77 ± 32 pg/mL, the “Plasma IL-13” value was found to be 234 ± 129 pg/mL, the “Plasma IL-17” value stood at 162 ± 62 pg/mL and the “Plasma TNFα” value worked out at 26 ± 0 pg/mL. The “Plasma MCP-1” value in assay [1] (8 week HFD, * significant difference PADRE vs tcOPN-PADRE) was 835 ± 187 pg/mL. Besides, in assay [1] (15 week HFD), the “Plasma IFNγ” value was found to be 48 ± 24 pg/mL, the “Plasma IL-2” value was found to be 43 ± 21 pg/mL, the “Plasma IL-4” value was 21 ± 7 pg/mL and the “Plasma IL-5” value came out at 110 ± 32 pg/mL. In assay [1] (15 week HFD), the “Plasma IL-6” value stood at 28 ± 11 pg/mL, the “Plasma IL-10” value is 172 ± 64 pg/mL, the “Plasma IL-13” value was 1153 ± 439 pg/mL and the “Plasma IL-17” value turned out to be 148 ± 27 pg/mL. In assay [1] (15 week HFD), the “Plasma MCP-1” value worked out at 703 ± 386 pg/mL and the “Plasma TNFα” value amounted to 712 ± 249 pg/mL. Besides, in assay [2], the “Antibodies (IgG) against the tcOPN-PADRE peptide” value was “did not develop antibodies” and the “Antibodies recognizing PADRE peptide” value is “low levels”.

Turning to “AKFVAAWTLKAAAGRGDSLAYGLR (PADRE-tcOPN short) [short tcOPN-PADRE peptide]”, in assay [3], the “Plaque area in the aortic arch, en face preparations” value is listed as “smaller plaque area” and the Subvalvular plaque area entry is given as “recapitulated the difference”.

On to “tcOPN: recombinant OPN cleaved with thrombin, C-terminal fragment removed (SLAYGLR)”, for which the “Monocyte migration towards the protein” value in assay [4] and in assay [5] was “increased migration” throughout.
